Measured values reported in patent US12344610B2, “APOL1 inhibitors and methods of use” (Maze Therapeutics, Inc., priority 2022, dated 2025).
pEC50: −log10 of the molar value.

What was measured:
[1] = test system: HEK293 clonal cell line overexpressing APOL1 G1; test: APOL1 G1 HEK293 cell rescue assay (Example B3); format: cell-based; settings: Homo sapiens, HEK293, HEK293 clonal line overexpressing APOL1 G1; geometric mean of at least 2 runs; † = single run; ¥ = concentration at 50% rescue estimated (no sigmoidal curve)
How it was run: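 HEK293 clonal line overexpressing APOL1 G1; EC50 is half-maximal reversal of APOL1-induced cell death. Values are the geometric mean of ≥2 runs on separate days, each run the average of duplicate wells. Where no sigmoidal curve could be fitted, the concentration giving 50% rescue was estimated.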

APOL1 G2 = molecular target: T1, APOL1 G2 (Homo sapiens, UniProt O14791, DEL388-389); test: APOL1-mediated calcium transport (calcium influx) assay, HEK T-REx/GCaMP6f/APOL1 G2 K6.3 cells, FLIPR TETRA; format: cell-based; settings: prevention of calcium influx; geometric mean of at least 2 assay runs; † = average of a technical replicate from a single assay run
T1 construct: expressed in transfected cells; host or cells: HEK293 T-REx clonal line stably expressing GCaMP6f (HEK T-REx/GCaMP6f/APOL1 G2 K6.3), doxycycline induced
T1 sequence (O14791 with tags, fused parts or gaps DEL388-389): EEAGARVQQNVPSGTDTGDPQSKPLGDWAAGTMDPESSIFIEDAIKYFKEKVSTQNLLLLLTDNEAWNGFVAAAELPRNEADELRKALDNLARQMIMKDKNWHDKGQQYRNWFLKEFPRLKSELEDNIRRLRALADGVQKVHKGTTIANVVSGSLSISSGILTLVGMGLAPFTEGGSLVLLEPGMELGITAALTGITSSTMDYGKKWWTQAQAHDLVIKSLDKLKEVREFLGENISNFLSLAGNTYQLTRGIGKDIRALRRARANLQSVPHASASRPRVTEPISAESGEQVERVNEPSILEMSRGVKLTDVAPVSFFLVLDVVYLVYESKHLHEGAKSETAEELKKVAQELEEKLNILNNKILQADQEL
How it was run: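 A HEK293 T-REx clone stably expressing GCaMP6f had APOL1 G2 induced with doxycycline (20 ng/mL solution added) for 6 h. Cells were then washed into Ca2+-free Tyrode's buffer (pH 7.4) and preincubated with compounds (duplicate 8-point) for 10 min at room temperature. Ca2+ injection to 5 mM final produced FLIPR GCaMP fluorescence, giving AC50 for influx inhibition (geometric mean, ≥2 runs).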

| SMILES | pEC50 [1] | AC50 (APOL1 G2) |
| --- | --- | --- |
| C[C@]1(O)C[C@@H](n2ccc3cc(OCCN4CCC5(CC4)C(=O)Nc4ccc(C#N)cc45)cnc32)C1 [Compound 410, 2-oxo-1′-[2-({1-[(cis)-3-hydroxy-3-methylcyclobutyl]-1H-pyrrolo[2,3-b]pyridin-5-yl}oxy)ethyl]-1,2-dihydrospiro[indole-3,4′-piperidine]-5-carbonitrile] | 7.03 | 623 nM |
| O=C1Nc2ccc(Cl)cc2C12CCN(CCOc1cnc(C3(CO)CC3)nc1)CC2 [Compound 333, 5-chloro-1′-[2-({2-[1-(hydroxymethyl)cyclopropyl]pyrimidin-5-yl}oxy)ethyl]-1,2-dihydrospiro[indole-3,4′-piperidin]-2-one] | 7.01 | 486 nM |
| C[C@]1(O)C[C@@H](n2c(=O)oc3cc(OCCN4CCC5(CC4)C(=O)Nc4ccc(Cl)cc45)cnc32)C1 [Compound 394, 5-chloro-1′-[2-({2-oxo-3-[(cis)-3-hydroxy-3-methylcyclobutyl]-2H,3H-[1,3]oxazolo[4,5-b]pyridin-6-yl}oxy)ethyl]-1,2-dihydrospiro[indole-3,4′-piperidin]-2-one] | 7.11 | 250 nM |
| C[C@]1(O)C[C@@H](n2ncc3cc(OCCN4CCC5(CC4)C(=O)Nc4ccc(Cl)cc45)cnc32)C1 (single isomer, unassigned) [Compound 357, 5-chloro-1′-[2-({1-[(cis)-3-hydroxy-3-methylcyclobutyl]-1H-pyrazolo[3,4-b]pyridin-5-yl}oxy)ethyl]-1,2-dihydrospiro[indole-3,4′-piperidin]-2-one] | 7.45 | 412 nM |
| CN1C(=O)Cc2cc(OCCN3CCC4(CC3)C(=O)Nc3ccc(Cl)cc34)ccc21 [Compound 65, 5-chloro-1′-{2-[(1-methyl-2-oxo-2,3-dihydro-1H-indol-5-yl)oxy]ethyl}-1,2-dihydrospiro[indole-3,4′-piperidin]-2-one] | 6.45 | 639 nM |
| C[C@]1(O)C[C@@H](n2ccc3cc(OCCN4CCC5(CC4)C(=O)Nc4ccc(C(F)F)cc45)cnc32)C1 [Compound 350, 5-(difluoromethyl)-1′-[2-({1-[(cis)-3-hydroxy-3-methylcyclobutyl]-1H-pyrrolo[2,3-b]pyridin-5-yl}oxy)ethyl]-1,2-dihydrospiro[indole-3,4′-piperidin]-2-one] | 7.36 | 113 nM |
| O=C1Nc2ccc(Cl)cc2C12CCN(CCOc1ccc(S(=O)(=O)C3CC3)cc1)CC2 [Compound 43, 5-chloro-1′-{2-[4-(cyclopropanesulfonyl)phenoxy]ethyl}-1,2-dihydrospiro[indole-3,4′-piperidin]-2-one] | 6.88 | 507 nM |
| Cc1ccc2c(c1)C1(CCN(CCOc3ccc(S(C)(=O)=O)cc3)CC1)C(=O)N2 [Compound 66, 1′-[2-(4-methanesulfonylphenoxy)ethyl]-5-methyl-1,2-dihydrospiro[indole-3,4′-piperidin]-2-one] | 6.49 | 461 nM |
| CC(=O)N1CCCc2cc(OCCN3CCC4(CC3)C(=O)N(C)c3ccccc34)ccc21 [Compound 36, 1′-{2-[(1-acetyl-1,2,3,4-tetrahydroquinolin-6-yl)oxy]ethyl}-1-methyl-1,2-dihydrospiro[indole-3,4′-piperidin]-2-one] | < 5.67 | 223 nM |
| [2H]C([2H])([2H])[C@]1(O)C[C@@H](N2C(=O)CCc3cc(OCCN4CCC5(CC4)C(=O)Nc4ccc(Cl)cc45)cnc32)C1 [Compound 461, 5-chloro-1′-[2-({7-oxo-8-[(cis)-3-hydroxy-3-(^2H3)methylcyclobutyl]-5,6,7,8-tetrahydro-1,8-naphthyridin-3-yl}oxy)ethyl]-1,2-dihydrospiro[indole-3,4′-piperidin]-2-one] | 7.09 | 676 nM |
| C[C@]1(O)C[C@@H](n2c(=O)ccc3cc(OCCN4CCC5(CC4)C(=O)Nc4ccc(OC(F)F)cc45)cnc32)C1 [Compound 328, 5-(difluoromethoxy)-1′-[2-({7-oxo-8-[(cis)-3-hydroxy-3-methylcyclobutyl]-7,8-dihydro-1,8-naphthyridin-3-yl}oxy)ethyl]-1,2-dihydrospiro[indole-3,4′-piperidin]-2-one] | 7.01 | 748 nM |
| C[C@]1(O)C[C@H](n2ncc3cc(OCCN4CCC5(CC4)C(=O)Nc4ccc(Cl)cc45)cnc32)C1 (single isomer, unassigned) [Compound 408, 5-chloro-1′-[2-({1-[(trans)-3-hydroxy-3-methylcyclobutyl]-1H-pyrazolo[3,4-b]pyridin-5-yl}oxy)ethyl]-1,2-dihydrospiro[indole-3,4′-piperidin]-2-one] | 7.25 | 283 nM |
| O=C1Nc2ccc(Cl)cc2C12CCN(CCOc1ccc3nccnc3c1)CC2 [Compound 62, 5-chloro-1′-[2-(quinoxalin-6-yloxy)ethyl]-1,2-dihydrospiro[indole-3,4′-piperidin]-2-one] | 6.36 | 958 nM |
| Cn1ncc2cc(OCCN3CCC4(CC3)C(=O)Nc3ccc(Cl)cc34)ccc21 [Compound 68, 5-chloro-1′-{2-[(1-methyl-1H-indazol-5-yl)oxy]ethyl}-1,2-dihydrospiro[indole-3,4′-piperidin]-2-one] | 6.43 | < 249 nM |
| CS(=O)(=O)c1ccc(OCCN2CCC3(CC2)C(=O)Nc2ccc(Cl)cc23)cc1 [Compound 69, 5-chloro-1′-[2-(4-methanesulfonylphenoxy)ethyl]-1,2-dihydrospiro[indole-3,4′-piperidin]-2-one] | 6.51 | 216 nM |
| C[C@]1(O)C[C@@H](n2cnc3cc(OCCN4CCC5(CC4)C(=O)Nc4ccc(Cl)cc45)cc(C#N)c32)C1 [Compound 439, 5-(2-{5-chloro-2-oxo-1,2-dihydrospiro[indole-3,4′-piperidin]-1′-yl}ethoxy)-1-[(cis)-3-hydroxy-3-methylcyclobutyl]-1H-1,3-benzodiazole-7-carbonitrile] | 7.34 | 603 nM |
